Reference: the supplement of paper PMC10307832

Key:
Experiment in all cases: relative viability (nuclei count vs DMSO), 5 days (fraction); higher = more cells survive
Bleomycin = compound: CC1=C(N=C(N=C1N)[C@H](CC(=O)N)NC[C@@H](C(=O)N)N)C(=O)N[C@@H]([C@H](C2=CN=CN2)OC3C(C(C(C(O3)CO)O)O)OC4C(C(C(C(O4)CO)O)OC(=O)N)O)C(=O)N[C@H](C)[C@H]([C@H](C)C(=O)N[C@@H]([C@@H](C)O)C(=O)NCCC5=NC(=CS5)C6=NC(=CS6)C(=O)NCCC[S+](C)C)O [Bleomycin]; details: main component drawn
Outline: (§1)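 Nuclei counted with MetaXpress define viability as the ratio of treated to vehicle wells, given as a median across plates. The lung cancer cell lines were in 1536-well plates, pinned with five √10-spaced library-drug doses and imaged at 4× after 5 days and Hoechst staining. Plates passed with control CV below 25% and at least one doubling.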

Etoposide = compound: COc1cc([C@@H]2c3cc4c(cc3[C@@H](O[C@@H]3O[C@@H]5CO[C@@H](C)O[C@H]5[C@H](O)[C@H]3O)[C@H]3COC(=O)[C@H]23)OCO4)cc(OC)c1O [Etoposide]
Outline: as §1

Bleomycin + Alpelisib = compound: CC1=C(N=C(N=C1N)[C@H](CC(=O)N)NC[C@@H](C(=O)N)N)C(=O)N[C@@H]([C@H](C2=CN=CN2)OC3C(C(C(C(O3)CO)O)O)OC4C(C(C(C(O4)CO)O)OC(=O)N)O)C(=O)N[C@H](C)[C@H]([C@H](C)C(=O)N[C@@H]([C@@H](C)O)C(=O)NCCC5=NC(=CS5)C6=NC(=CS6)C(=O)NCCC[S+](C)C)O [Bleomycin] + Cc1nc(NC(=O)N2CCC[C@H]2C(N)=O)sc1-c1ccnc(C(C)(C)C(F)(F)F)c1 [Alpelisib] (partner 2 µM); details: main component drawn
Outline: (§2)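 Lung cancer cell lines were pin-tool dosed in 1536-well plates on the day after seeding, with either a lone drug or a fixed anchor-drug dose plus five library-drug doses (not always all listed) in √10 steps. Nuclei were counted on 4× images after 5 days. Relative viability is the ratio of treated-well to vehicle-well nuclei counts, with each value a median of duplicate plates.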

Etoposide + Bortezomib = compound: COc1cc([C@@H]2c3cc4c(cc3[C@@H](O[C@@H]3O[C@@H]5CO[C@@H](C)O[C@H]5[C@H](O)[C@H]3O)[C@H]3COC(=O)[C@H]23)OCO4)cc(OC)c1O [Etoposide] + CC(C)C[C@H](NC(=O)[C@H](Cc1ccccc1)NC(=O)c1cnccn1)B(O)O [Bortezomib] (partner 0.002 µM)
Outline: as §2

Cell Line | relative viability (Bleomycin; 0.01 µM) | relative viability (Bleomycin; 0.03162 µM) | relative viability (Bleomycin; 0.1 µM) | relative viability (Bleomycin; 0.3162 µM) | relative viability (Bleomycin; 1 µM) | relative viability (Etoposide; 0.01 µM) | relative viability (Etoposide; 0.03162 µM) | relative viability (Etoposide; 0.1 µM) | relative viability (Etoposide; 0.3162 µM) | relative viability (Etoposide; 1 µM) | relative viability (Bleomycin + Alpelisib; first compound 0.01 µM) | relative viability (Bleomycin + Alpelisib; first compound 0.03162 µM) | relative viability (Bleomycin + Alpelisib; first compound 0.1 µM) | relative viability (Bleomycin + Alpelisib; first compound 0.3162 µM) | relative viability (Bleomycin + Alpelisib; first compound 1 µM) | relative viability (Etoposide + Bortezomib; first compound 0.01 µM) | relative viability (Etoposide + Bortezomib; first compound 0.03162 µM) | relative viability (Etoposide + Bortezomib; first compound 0.1 µM) | relative viability (Etoposide + Bortezomib; first compound 0.3162 µM) | relative viability (Etoposide + Bortezomib; first compound 1 µM)
NCI-H1666 | 0.781 | 0.737 | 0.649 | 0.474 | 0.451 | 0.947 | 0.908 | 0.818 | 0.483 | 0.414 | 0.711 | 0.708 | 0.625 | 0.264 | 0.354 | 0.949 | 0.71 | 0.528 | 0.294 | 0.242
NCI-H2085 | 0.925 | 0.913 | 0.83 | 0.56 | 0.515 | 0.926 | 1.01 | 0.903 | 0.868 | 0.507 | 0.715 | 0.778 | 0.672 | 0.436 | 0.378 | 1.08 | 1.08 | 0.953 | 0.674 | 0.354
NCI-H1734 | 0.811 | 0.743 | 0.717 | 0.411 | 0.287 | 0.979 | 1.2 | 0.597 | 0.676 | 0.304 | 0.626 | 0.519 | 0.514 | 0.27 | 0.216 | 0.894 | 0.878 | 0.572 | 0.624 | 0.308
NCI-H2228 | 0.902 | 1.01 | 0.899 | 0.559 | 0.311 | 0.926 | 1.1 | 0.7 | 0.582 | 0.195 | 0.905 | 0.959 | 0.696 | 0.341 | 0.376 | 1 | 1.17 | 0.731 | 0.717 | 0.22
EMC-BAC-2 | 0.72 | 0.91 | 0.747 | 0.418 | 0.302 | 0.964 | 0.959 | 0.453 | 0.278 | 0.234 | 0.647 | 0.643 | 0.653 | 0.355 | 0.232 | 1.07 | 1.03 | 0.729 | 0.452 | 0.196
NCI-H1993 | 0.853 | 0.899 | 0.876 | 0.601 | 0.564 | 0.727 | 1.1 | 0.636 | 0.783 | 0.501 | 0.648 | 0.642 | 0.618 | 0.536 | 0.522 | 0.954 | 1.12 | 0.631 | 0.919 | 0.473
NCI-H596 | 0.775 | 0.754 | 0.637 | 0.377 | 0.412 | 0.866 | 1.03 | 0.685 | 0.877 | 0.734 | 0.377 | 0.686 | 0.395 | 0.259 | 0.269 | 0.798 | 1.1 |  | 0.968 | 0.977
NCI-H650 | 0.743 | 1.11 | 0.768 | 0.492 | 0.242 | 0.949 | 0.98 | 0.68 | 0.561 | 0.256 | 0.948 | 1.03 | 0.827 | 0.456 | 0.312 | 0.683 | 0.836 | 0.63 | 0.417 | 0.222
NCI-H1792 | 0.755 | 1.03 | 0.733 | 0.387 | 0.421 | 1.01 | 1.22 | 0.522 | 0.816 | 0.416 | 0.631 | 0.61 | 0.623 | 0.228 | 0.221 | 0.899 | 0.878 | 0.819 | 0.897 | 0.581
SW 1573 | 0.743 | 0.705 | 0.677 | 0.396 | 0.286 | 0.968 | 0.986 | 0.635 | 0.309 | 0.167 | 0.643 | 0.64 | 0.596 | 0.302 | 0.342 | 1 | 0.977 | 0.608 | 0.449 | 0.186
NCI-H1299 | 0.937 | 1.03 | 0.936 | 0.601 | 0.287 | 1.01 | 0.995 | 1.07 | 0.932 | 0.779 | 0.978 | 1.03 | 0.923 | 0.529 | 0.416 | 1.03 | 0.999 | 1.11 | 0.957 | 0.821
NCI-H2009 | 0.953 | 1.02 | 1.01 | 0.659 | 0.566 | 1.02 | 1.03 | 0.938 | 0.765 | 0.42 | 1.05 | 1.16 | 1.16 | 0.84 | 0.531 | 0.975 | 1.1 | 0.933 | 0.628 | 0.241
LOU-NH91 | 0.838 | 0.689 | 0.614 | 0.448 | 0.339 | 0.978 | 1.01 | 0.853 | 0.826 | 0.486 | 0.604 | 0.498 | 0.469 | 0.388 | 0.322 | 0.563 | 0.502 | 0.498 | 0.435 | 0.375
NCI-H3122 | 1 | 0.993 | 0.928 | 0.528 | 0.358 | 1 | 0.995 | 0.983 | 0.854 | 0.333 | 0.737 | 0.709 | 0.778 | 0.378 | 0.349 | 1.04 | 0.986 | 1.04 | 0.816 | 0.47
LCLC-97TM1 | 0.394 | 0.525 | 0.258 | 0.16 | 0.0918 | 0.945 | 1.14 | 0.634 | 0.468 | 0.138 | 0.162 | 0.186 | 0.134 | 0.127 | 0.101 | 0.865 | 0.329 | 0.485 | 0.132 | 0.0671
NCI-H647 | 0.397 | 0.369 | 0.237 | 0.125 | 0.0764 | 0.815 | 1.07 | 0.815 | 0.442 | 0.195 | 0.575 | 0.448 | 0.337 | 0.109 | 0.0917 | 0.807 | 1.4 | 0.72 | 0.298 | 0.147
NCI-H838 | 0.692 | 0.436 | 0.301 | 0.229 | 0.213 | 0.963 | 1.03 | 0.719 | 0.773 | 0.351 | 0.674 | 0.29 | 0.238 | 0.161 | 0.212 | 0.641 | 0.978 | 0.659 | 0.624 | 0.333
H3255 | 0.837 | 1.02 | 0.821 | 0.61 | 0.502 | 0.962 | 1.09 | 0.73 | 0.725 | 0.433 | 0.532 | 0.69 | 0.508 | 0.335 | 0.305 | 0.831 | 0.777 | 0.516 | 0.591 | 0.383
NCI-H1437 | 0.879 | 0.985 | 0.886 | 0.654 | 0.567 | 1.04 | 1.07 | 0.999 | 0.68 | 0.343 | 0.799 | 0.922 | 0.83 | 0.406 | 0.396 | 0.378 | 0.547 | 0.492 | 0.243 | 0.273
LU99A | 0.766 | 0.794 | 0.659 | 0.407 | 0.242 | 0.934 | 1.17 | 0.499 | 0.681 | 0.233 | 0.345 | 0.332 | 0.239 | 0.137 | 0.118 | 1.31 | 1.31 | 0.661 | 0.432 | 0.19
HCC-827 | 0.983 | 1.08 | 0.9 | 0.577 | 0.277 | 1.07 | 1.08 | 0.965 | 0.659 | 0.258 | 0.925 | 1 | 0.852 | 0.599 | 0.233 | 1.09 | 1.06 | 1.07 | 0.803 | 0.458
HCC-366 | 0.923 | 0.722 | 0.591 | 0.182 | 0.0724 | 0.992 | 1.07 | 0.769 | 0.377 | 0.0702 | 0.345 | 0.253 | 0.212 | 0.042 | 0.035 | 1.04 | 1.03 | 0.518 | 0.135 | 0.0399
BEN | 0.94 | 0.943 | 0.973 | 0.638 | 0.742 | 0.932 | 0.986 |  | 1 | 0.913 | 1.01 | 0.921 | 0.937 | 0.762 | 0.738 | 0.728 | 0.869 |  | 0.565 | 0.6
NCI-H2347 | 0.915 | 1.03 | 0.918 | 0.461 | 0.558 | 1 | 1.01 | 0.733 | 0.541 | 0.45 | 0.892 | 1.05 | 0.997 | 0.51 | 0.478 | 1.06 | 1.32 | 0.716 | 0.572 | 0.515
201T | 0.909 | 0.95 | 0.922 | 0.756 | 0.634 | 0.906 | 0.988 | 0.845 | 0.881 | 0.526 | 0.956 | 0.949 | 0.96 | 0.862 | 0.753 | 1.04 | 1.1 | 1.01 | 1.04 | 0.765
NCI-H520 | 0.901 | 0.92 | 0.816 | 0.747 | 0.602 | 0.881 | 0.879 | 0.636 | 0.87 | 0.709 | 0.759 | 0.796 | 0.863 | 0.543 | 0.402 | 0.484 | 0.634 | 0.379 | 0.576 | 0.561
NCI-H727 | 0.891 | 0.777 | 0.831 | 0.391 | 0.687 | 0.945 | 1.04 | 0.586 | 0.87 | 0.852 | 0.499 | 0.529 | 0.491 | 0.293 | 0.308 | 0.764 | 1.07 | 0.536 | 0.857 | 0.659
HCC-15 | 0.937 | 0.873 | 0.879 | 0.424 | 0.382 | 1.01 | 1.07 | 1 | 0.485 | 0.182 | 0.79 | 0.852 | 0.751 | 0.35 | 0.236 | 0.959 | 1.04 | 1.13 | 0.67 | 0.157
